Test results reported in patent US20240116946A1 (Gilead Sciences, Inc., priority 2022, published 2024).
Read-outs that look alike come from different tables or passages of the source.

What was measured:
[1] = system: SARS-CoV-2-NLuc; assay: microbe, parasite or virus in culture; type: cell-based, SARS Coronavirus 2
[2] = target: recombinant SARS-CoV-2 Main protease (Mpro) (Severe acute respiratory syndrome coronavirus 2 (2019-nCoV) (SARS-CoV-2), UniProt P0DTD1); assay: Cov Mpro Biochemical IC50 Assay; conditions: read-out: MPro IC50
[3] = Severe acute respiratory syndrome coronavirus, 48 h, read-out: MPro EC50
[4] = recombinant SARS-CoV-2 Mpro 7.5 nM, fluorogenic peptide substrate 40 μM
[5] = recombinant SARS-CoV-2 Mpro, fluorogenic peptide substrate
[6] = Severe acute respiratory syndrome coronavirus, 48 h; read-out: MPro EC50

Row | SMILES | EC50 [1, 3] | IC50 [2, 4] | IC50 [2, 5] | EC50 ([1]; read-out: MPro EC50) | EC50 [1, 6]
1 | COc1cc(-c2cc3[nH]c(=O)n(-c4cncc5nn(CC(F)(F)F)c(C)c45)c(=O)c3s2)c(Cl)cc1F [Example 740] | 0.103 µM | 0.0479 µM |  |  | 
2 | Cc1ncccc1-c1cc2[nH]c(=O)n(-c3cncc4ccccc34)c(=O)c2s1 [Example 23] | 0.8 µM |  | 0.258 µM |  | 
3 | COc1cc(-c2cc3c(s2)c(=O)n(-c2cncc4ccccc24)c(=O)n3CC(C)(C)C#N)c(Cl)cc1F [Example 698] | 0.0141 µM | 0.0071 µM |  |  | 
4 | COc1ccc(Cl)c(-c2ccc3c(=O)n(-c4cncc5c4CCCO5)c(=O)[nH]c3c2)c1 [Example 597] | 0.205 µM | 0.16 µM |  |  | 
5 | O=c1[nH]c2cc(-c3ccccc3Cl)ccc2c(=O)n1-c1cncc2ccccc12 (single isomer, unassigned) [Example 104, 7-(2-chlorophenyl)-3-(isoquinolin-4-yl)quinazoline-2,4(1H,3H)-dione] |  |  | 6.79 µM | 3.92 µM | 
6 | Cc1nccnc1COc1cccc(Cl)c1-c1ccc2c(=O)n(-c3cncc4ccccc34)c(=O)[nH]c2c1 [Example 94] | 0.269 µM |  | 0.21 µM |  | 
7 | COc1cc(-c2cc3c(s2)c(=O)n(-c2cncc4nnn(C5CC5)c24)c(=O)n3CC2(C#N)CC2)c(Cl)cc1F [Example 692] | 0.00244 µM | 0.00435 µM |  |  | 
8 | N#Cc1cc(-c2cccc(Cl)c2-c2ccc3c(=O)n(-c4cncc5ccccc45)c(=O)[nH]c3c2)cnc1N1CCOCC1 [Example 277] | 0.057 µM |  | 0.124 µM |  | 
9 | CC(C)(O)c1cncc(-c2cccc(Cl)c2-c2ccc3c(=O)n(-c4cncc5ccccc45)c(=O)[nH]c3c2)c1 [Example 209] | 0.0236 µM |  | 0.0104 µM |  | 
10 | O=c1[nH]c2cc(-c3ccccc3C(F)(F)F)ccc2c(=O)n1-c1cncc2ccccc12 [Example 24, 3-(isoquinolin-4-yl)-7-(2-(trifluoromethyl)phenyl)quinazoline-2,4(1H,3H)-dione] |  |  | 2.73 µM |  | 2.5 µM
11 | COc1ccc(Cl)c(-c2ccc3c(=O)n(-c4cncc5ccc(F)cc45)c(=O)[nH]c3c2)c1 [Example 371] |  |  | 0.0559 µM |  | 0.108 µM
12 | Cc1nc2cncc(-n3c(=O)c4sc(-c5ccc(F)cc5Cl)cc4n(CCC#N)c3=O)c2n1C (single isomer, unassigned) [Example 966, 3-(6-(2-chloro-4-fluorophenyl)-3-(1,2-dimethyl-1H-imidazo[4,5-c]pyridin-7-yl)-2,4-dioxo-3,4-dihydrothieno[3,2-d]pyrimidin-1(2H)-yl)propanenitrile] |  | 0.309 µM |  | > 1 µM | 
13 | COc1cc(-c2cc3c(s2)c(=O)n(-c2cncc(C#N)c2)c(=O)n3CCC#N)c(Cl)cc1F [Example 1040, 5-(6-(2-chloro-4-fluoro-5-methoxyphenyl)-1-(2-cyanoethyl)-2,4-dioxo-1,4-dihydrothieno[3,2-d]pyrimidin-3(2H)-yl)nicotinonitrile] |  | 0.00464 µM |  |  | 0.00966 µM
14 | Cn1cc(-c2cccc(Cl)c2-c2ccc3c(=O)n(-c4cncc5ccccc45)c(=O)[nH]c3c2)nn1 [Example 310] | 0.14 µM |  | 0.0554 µM |  | 
15 | COc1ccc(Cl)c(-c2cc3[nH]c(=O)n(-c4cncc5ccc(N6CCOCC6)cc45)c(=O)c3cc2F)c1 [Example 434] |  | 0.016 µM |  |  | 0.0333 µM
16 | COc1cccc(-c2ccc3c(=O)n(-c4cncc5ccccc45)c(=O)[nH]c3c2)c1Cl [Example 295] | 13.5 µM |  | 7.43 µM |  | 
17 | N#CCn1c(=O)n(-c2cncc3ccccc23)c(=O)c2sc(-c3ccc(F)cc3Cl)cc21 [Example 727] | 0.00836 µM | 0.00309 µM |  |  | 
18 | Cc1nn(C2COC2)c(C)c1-c1cccc(Cl)c1-c1ccc2c(=O)n(-c3cncc4ccccc34)c(=O)[nH]c2c1 [Example 321] | 0.0251 µM |  | 0.00828 µM |  | 
19 | O=c1[nH]c2cc(-c3ccccc3Cl)ccc2c(=O)n1-c1cncc2cccnc12 [Example 450] | 0.211 µM | 0.127 µM |  |  | 
20 | Cc1c(-c2cccc(Cl)c2-c2cc3[nH]c(=O)n(-c4cncc5ccccc45)c(=O)c3s2)cn2ncnc2c1C [Example 114] | 0.0444 µM |  | 0.0109 µM |  | 
21 | CC(C)Oc1cc(F)ccc1-c1cc2[nH]c(=O)n(-c3cncc4ccccc34)c(=O)c2s1 [Example 14] | 0.0799 µM |  | 0.132 µM |  | 
22 | O=c1[nH]c2cc(-c3ccccc3Cl)ccc2c(=O)n1-c1cncc(C(F)(F)F)c1 [Example 578] |  | > 50 µM |  |  | 9.87 µM
23 | Cc1c2c(-n3c(=O)c4sc(-c5ccc(F)cc5Cl)cc4n(CCC#N)c3=O)cncc2nn1C (single isomer, unassigned) [Example 972, 3-(6-(2-chloro-4-fluorophenyl)-3-(2,3-dimethyl-2H-pyrazolo[3,4-c]pyridin-4-yl)-2,4-dioxo-3,4-dihydrothieno[3,2-d]pyrimidin-1(2H)-yl)propanenitrile] |  | > 1 µM |  | > 1 µM | 

Row | SMILES | EC50 [1, 3] | IC50 [2, 4] | IC50 [2, 5] | EC50 ([1]; read-out: MPro EC50) | EC50 [1, 6]
24 | CC(=O)NC1CCN(c2ccc3cncc(-n4c(=O)[nH]c5cc(-c6ccccc6Cl)sc5c4=O)c3c2)CC1 [Example 388] | 0.212 µM |  | 0.0187 µM |  | 
25 | O=c1[nH]c2cc(-c3ccccc3Cl)c(OC3CC3)cc2c(=O)n1-c1cncc2ccccc12 [Example 80] | 0.232 µM |  | 0.768 µM |  | 
26 | COc1cc(-c2cc3c(s2)c(=O)n(-c2cncc4ccccc24)c(=O)n3CC#N)c(Cl)cc1F (single isomer, unassigned) [Example 634, 2-[6-(2-chloro-4-fluoro-5-methoxy-phenyl)-3-(4-isoquinolyl)-2,4-dioxo-thieno[3,2-d]pyrimidin-1-yl]acetonitrile] |  | 0.029 µM |  | 0.0312 µM | 
27 | COc1cc(-c2cc3[nH]c(=O)n(-c4cncc5ccc(C)nc45)c(=O)c3s2)c(Cl)cc1F (single isomer, unassigned) [Example 1035, 6-(2-chloro-4-fluoro-5-methoxyphenyl)-3-(2-methyl-1,6-naphthyridin-8-yl)thieno[3,2-d]pyrimidine-2,4(1H,3H)-dione] |  | 0.0263 µM |  | 0.0244 µM | 
28 | COc1cc(-c2cc3[nH]c(=O)n(-c4cncc5cnn(C)c45)c(=O)c3s2)c(Cl)cc1Cl [Example 667] | 0.0187 µM | 0.014 µM |  |  | 
29 | COc1ccc(C#N)c(-c2cc3[nH]c(=O)n(-c4cncc5cccc(F)c45)c(=O)c3s2)c1 [Example 446] | 0.0255 µM | 0.00874 µM |  |  | 
30 | O=c1[nH]c2cc(-c3ccccc3Cl)sc2c(=O)n1-c1cnccc1C1CCOCC1 [Example 138] | 0.144 µM |  | 0.0162 µM |  | 
31 | COc1cnc(C)c(-c2cc3[nH]c(=O)n(-c4cncc5ccccc45)c(=O)c3s2)c1 [Example 718] | 0.371 µM | 0.106 µM |  |  | 
32 | N#CCCn1c(=O)n(-c2cncc(C3CC4(COC4)C3)c2)c(=O)c2sc(-c3ccccc3Cl)cc21 [Example 1064, 3-(3-(5-(2-oxaspiro[3.3]heptan-6-yl)pyridin-3-yl)-6-(2-chlorophenyl)-2,4-dioxo-3,4-dihydrothieno[3,2-d]pyrimidin-1(2H)-yl)propanenitrile] |  | 0.024 µM |  |  | 0.713 µM
33 | O=c1[nH]c2cc(-c3ccccc3)ncc2c(=O)n1-c1cncc2ccccc12 [Example 164] | 12.5 µM |  | 7.88 µM |  | 
34 | COc1ccc(C#N)c(-c2cc3[nH]c(=O)n(-c4cncc5ccc(C(F)F)cc45)c(=O)c3s2)c1 [Example 224] | 0.124 µM |  | 0.0102 µM |  | 
35 | COc1cc(-c2cc3c(s2)c(=O)n(-c2cncc4cnn(C)c24)c(=O)n3CC#N)c(Cl)cc1F (single isomer, unassigned) [Example 1013, 2-[6-(2-chloro-4-fluoro-5-methoxy-phenyl)-3-(1-methylpyrazolo[4,3-c]pyridin-7-yl)-2,4-dioxo-thieno[3,2-d]pyrimidin-1-yl]acetonitrile] |  | 0.00142 µM |  | 0.0165 µM | 
36 | COc1cc(-c2cc3[nH]c(=O)n(-c4cncc5ccccc45)c(=O)c3cc2OC)c(Cl)cc1F (single isomer, unassigned) [Example 1055, 7-(2-chloro-4-fluoro-5-methoxyphenyl)-3-(isoquinolin-4-yl)-6-methoxyquinazoline-2,4(1H,3H)-dione] |  | 0.459 µM |  | 0.46 µM | 
37 | COc1cc(-c2cc3[nH]c(=O)n(-c4cncc5ccncc45)c(=O)c3s2)c(Cl)cc1F [Example 739] |  | 0.00945 µM |  |  | 0.0175 µM
38 | COc1cncc(-c2cccc(Cl)c2-c2ccc3c(=O)n(-c4cncc5ccccc45)c(=O)[nH]c3c2)c1 [Example 199] | 0.0254 µM |  | 0.0193 µM |  | 
39 | COc1cc(-c2cc3c(s2)c(=O)n(-c2cncc(CO)c2)c(=O)n3CCC#N)c(Cl)cc1F [Example 1100, 3-(6-(2-chloro-4-fluoro-5-methoxyphenyl)-3-(5-(hydroxymethyl)pyridin-3-yl)-2,4-dioxo-3,4-dihydrothieno[3,2-d]pyrimidin-1(2H)-yl)propanenitrile] |  | 0.0026 µM |  |  | 0.015 µM
40 | O=c1[nH]c2cc(-c3c(Cl)cccc3-c3ccn4ncnc4c3)ccc2c(=O)n1-c1cncc2ccccc12 [Example 142, 7-[2-chloro-6-([1,2,4]triazolo[1,5-a]pyridin-7-yl)phenyl]-3-(4-isoquinolyl)-1H-quinazoline-2,4-dione] | 0.0315 µM |  | 0.00862 µM |  | 
41 | O=c1[nH]c2cc(-c3ccccc3Cl)sc2c(=O)n1-c1cncc2c1cnn2CC(F)(F)F [Example 492] | 4.84 µM | > 50 µM |  |  | 
42 | COc1cc(-c2cc3c(s2)c(=O)n(-c2cnnc(C)c2)c(=O)n3CCC#N)c(Cl)cc1F [Example 988] | 0.259 µM | 0.0634 µM |  |  | 
43 | N#CCCn1c(=O)n(-c2cnccn2)c(=O)c2sc(-c3ccc(F)cc3C#N)cc21 [Example 829] |  | 0.42 µM |  |  | > 1 µM
44 | O=c1[nH]c2cc(-c3ccccc3Cl)sc2c(=O)n1-c1cncc2ccc(N3CC4(COC4)C3)cc12 [Example 397] | 0.0152 µM | 0.00351 µM |  |  | 
45 | COc1cc(-c2cc3c(s2)c(=O)n(-c2cncc4cnn(C)c24)c(=O)n3CC2(CC#N)CC2)c(Cl)cc1F [Example 659] |  | 0.0409 µM |  |  | 
